According to patent publication EP0467099A2, “Substituted acrylophenons” (BAYER AG, priority 1990, dated 1992):

Assays:
Testpflanzen [1] = assay: Post-emergence test (herbicidal damage rating); assay type: in vivo; conditions: plants 5 - 15 cm sprayed, rated after three weeks, result in words only; for Wirksamkeit (Schädigungsgrad der Pflanzen): compared with reference 2-[2-(4,6-Dimethoxy)-pyrimidinylthio]-benzoesäuremethylester (EP 223406/Bsp. 11); for Nutzpflanzenselektivität: crop selectivity compared with reference 2-[2-(4,6-Dimethoxy)-pyrimidinylthio]-benzoesäuremethylester (EP 223406/Bsp. 11)
Source text: Lösungsmittel: 5 Gewichtsteile Aceton
Emulgator: 1 Gewichtsteil Alkylarylpolyglykolether
(§1) Zur Herstellung einer zweckmäßigen Wirkstoffzubereitung vermischt man 1 Gewichtsteil Wirkstoff mit der angegebenen Menge Lösungsmittel, gibt die angegebene Menge Emulgator zu und verdünnt das Konzentrat mit Wasser auf die gewünschte Konzentration.
Mit der Wirkstoffzubereitung spritzt man Testpflanzen, welche eine Höhe von 5 - 15 cm haben, so, daß die jeweils gewünschten Wirkstoffmengen pro Flächeneinheit ausgebracht werden. Die Konzentration der Spritzbrühe wird so gewählt, daß in 1000 I Wasser/ha die jeweils gewünschten Wirkstoffmengen ausgebracht werden. Nach drei Wochen wird der Schädigungsgrad der Pflanzen bonitiert in % Schädigung im Vergleich zur Entwicklung der unbehandelten Kontrolle.
Es bedeuten: • 0 % = keine Wirkung (wie unbehandelte Kontrolle) • 100 % = totale Vernichtung

Testpflanzen [2] = assay: Pre-emergence test (herbicidal damage rating); assay type: in vivo; conditions: seeds watered 24 h after sowing, rated after three weeks, compared with reference 2-[2-(4,6-Dimethoxy)-pyrimidinylthio]-benzoesäuremethylester (EP 223406/Bsp. 11), result in words only
Source text: Lösungsmittel: 5 Gewichtsteile Aceton Emulgator: 1 Gewichtsteil Alkylarylpolyglykolether
as §1
Samen der Testpflanzen werden in normalen Boden ausgesät und nach 24 Stunden mit der Wirkstoffzubereitung begossen. Dabei hält man die Wassermenge pro Flächeneinheit zweckmäßigerweise konstant. Die Wirkstoffkonzentration in der Zubereitung spielt keine Rolle, entscheidend ist nur die Aufwandmenge des Wirkstoffs pro Flächeneinheit. Nach drei Wochen wird der Schädigungsgrad der Pflanzen bonitiert in % Schädigung im Vergleich zur Entwicklung der unbehandelten Kontrolle. Es bedeuten: • 0 % = keine Wirkung (wie unbehandelte Kontrolle) • 100 % = totale Vernichtung

`COc1cc(OC)nc(Oc2ccccc2C(=O)C(C)=CN(C)C)n1` [Beispiel 2, 3-Dimethylamino-2-methyl-1-{2-[2-(4,6-dimethoxy)-pyrimidinyloxy]-phenyl}-prop-2-en-1-on] was tested, and the “Wirksamkeit (Schädigungsgrad der Pflanzen)” value (“Wirksamkeit” for short) (Testpflanzen [1]) was “deutliche Überlegenheit” and the Nutzpflanzenselektivität (Testpflanzen [1]) was “deutliche Überlegenheit”.

`COc1cc(OC)nc(Oc2ccccc2C(=O)C=P(c2ccccc2)(c2ccccc2)c2ccccc2)n1` [Beispiel 3, {2-[2-(4,6-Dimethoxy)-pyrimidinyloxy]-benzoyl}-methylentriphenylphosphoran] was tested, and the “Wirksamkeit” value (Testpflanzen [1]) was “deutliche Überlegenheit” and the Nutzpflanzenselektivität (Testpflanzen [1]) was “deutliche Überlegenheit”.

In the case of `COc1cc(OC)nc(Oc2ccccc2C(=O)C=CN2CCCCCC2)n1` [Beispiel 1, 3-(1-Hexahydroazepino)-1-{2-[2-(4,6-dimethoxy)-pyrimidinyloxy]-phenyl}-prop-2-en-1-on], the “Wirksamkeit” value (Testpflanzen [2]) is reported as “deutliche Überlegenheit”, the “Wirksamkeit” value (Testpflanzen [1]) is reported as “deutliche Überlegenheit” and the Nutzpflanzenselektivität (Testpflanzen [1]) is reported as “deutliche Überlegenheit”.
